The record followed here is patent US6426355B1, “Heterocyclic carboxamide-containing thiourea inhibitors of herpes viruses containing phenylenediamine group” (American Home Products, priority 1998, dated 2002).

Assay [1] deals with HCMV recombinant mutant virus (RV145). Kind of assay: HCMV microtiter plate assay (beta-glucuronidase reporter). The following applies: for IC50: Human betaherpesvirus 5, Fibroblast, read-out: IC50 (ug/ml) HCMV. The class given is cell-based, Human Cytomegalovirus. Put shortly: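 Human foreskin fibroblasts were infected with RV145 in the presence of inhibitor. β-glucuronidase under a viral promoter served as the replication marker. At 96 h post-infection, lysates in pH 7.0 phosphate with Triton X-100/sarkosyl were assayed colorimetrically or fluorometrically, and IC50 was estimated from varying inhibitor amounts.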

Another assay deals with VZV strain Ellen. Kind of assay: VZV Antiviral (ELISA) assay. The assay is classed as cell-based. As to conditions: for IC50: Human alphaherpesvirus 3, VZV strain Ellen in HFF cells, read-out: IC50 (ug/ml) VZV; for inhibition at 10 µg/mL: Human alphaherpesvirus 3, read-out: % inhibition 10 ug/ml VZV, at 10 ug/ml, VZV strain Ellen in HFF cells. Put shortly: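 Cell-based ELISA: infected/uninfected HFF mix (VZV Ellen, MOI <0.1) exposed to compound in DMEM/2% FBS for 3 days at 37° C. Anti-gpII monoclonal plus β-galactosidase-linked secondary, detected as 4-methylumbelliferone fluorescence; IC50 derived by comparing fluorescence with versus without compound.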
In general terms: An ELISA detects its analyte on a solid surface through an enzyme-linked reagent.

A further assay concerns HSV-1. As to the kind of experiment: HSV Antiviral (ELISA) assay. As to conditions: for IC50: Human alphaherpesvirus 1, HSV-1 in Vero cells, read-out: IC50 (ug/ml) HSV. The class given is cell-based. Put shortly: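 Vero cells in DMEM/2% FBS pretreated with compound 30 min before HSV-1 infection (MOI 0.006), then ~24 h at 37 °C. Viral gD detected by ELISA with β-galactosidase secondary and 4-methylumbelliferyl-galactoside (ex 365/em 450 nm); IC50 from fluorescence versus untreated infected cells.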

Values after ≈ are worked out from the molar mass of the structure shown.

Consider `O=C(Nc1ccc(NC(=S)Nc2cc(Cl)ccc2Cl)cc1)c1csnn1` [Example 866, [1,2,3,]Thiadiazole-4-carboxylic acid {4-[3-(2,5-dichloro-phenyl)-thioureido]-phenyl}-amide], for which, in assay [1] (HCMV in human foreskin fibroblasts), the “IC50 (ug/ml) HCMV” value is 0.035 µg/mL (≈ 0.0825 µM). Further, the “IC50 (ug/ml) VZV” value in the assay with VZV strain Ellen (VZV strain Ellen in HFF cells) was greater than 10 µg/mL. The “% inhibition 10 ug/ml VZV” value in the assay with VZV strain Ellen (at 10 ug/ml, VZV strain Ellen in HFF cells) was 50%. In addition, the “IC50 (ug/ml) HSV” value in the assay on HSV-1 (HSV-1 in Vero cells) is greater than 10 µg/mL.

Regarding `COc1c(Cl)cc(NC(=S)Nc2ccc(NC(=O)c3ccco3)cc2)cc1Cl` [Example 875, Furan-2-carboxylic acid {4-[3-(3,5-dichloro-4-methoxy-phenyl)-thioureido]-phenyl}-amide], the IC50 was greater than 2.2 µg/mL in assay [1], greater than 10 µg/mL in the assay on VZV strain Ellen and greater than 50 µg/mL with HSV-1. Besides, the inhibition at 10 µg/mL with VZV strain Ellen is 18%.

As to `COc1cc(OC)c(NC(=S)Nc2ccc(NC(=O)c3ccco3)cc2)cc1Br` [Example 879, Furan-2-carboxylic acid {4-[3-(5-bromo-2,4-dimethoxy-phenyl)-thioureido]-phenyl}-amide], the IC50 came out at 0.3 µg/mL (≈ 0.63 µM) in assay [1], 10 µg/mL (≈ 21 µM) in the assay on VZV strain Ellen and 4 µg/mL (≈ 8.4 µM) with HSV-1. In addition, the inhibition at 10 µg/mL in the assay with VZV strain Ellen stood at 65%.

As to `COc1ccc(NC(=S)Nc2ccc(NC(=O)c3csnn3)cc2)cc1Cl` [Example 888, [1,2,3]Thiadiazole-4-carboxylic acid {4-[3-(3-chloro-4-methoxy-phenyl)-thioureido]-phenyl}-amide], the IC50 in assay [1] was 0.06 µg/mL (≈ 0.143 µM); in the assay with VZV strain Ellen it was greater than 10 µg/mL; with HSV-1 it was 6 µg/mL (≈ 14.3 µM). The inhibition at 10 µg/mL in the assay on VZV strain Ellen came out at 31%.

As to `CSc1ccc(NC(=S)Nc2ccc(NC(=O)c3ccco3)cc2)cc1Cl` [Example 897, Furan-2-carboxylic acid {4-[3-(3-chloro-4-methylsulfanyl-phenyl)-thioureido]-phenyl}-amide], the IC50 was 0.037 µg/mL (≈ 0.0885 µM) in assay [1], greater than 10 µg/mL in the assay on VZV strain Ellen and greater than 10 µg/mL in the assay on HSV-1. Moreover, the inhibition at 10 µg/mL in the assay with VZV strain Ellen was 62%.

For `CN(C)c1ccc(NC(=S)Nc2ccc(NC(=O)c3csnn3)cc2)cc1Cl` [Example 902, [1,2,3]Thiadiazole-4-carboxylic acid {4-[3-(3-chloro-4-dimethylamino-phenyl)-thioureido]-phenyl}-amide], the results for the IC50 (in assay [1]; in the assay on VZV strain Ellen; in the assay with HSV-1) were 0.12 µg/mL (≈ 0.277 µM), greater than 10 µg/mL and greater than 10 µg/mL, respectively. Moreover, in the assay on VZV strain Ellen, the inhibition at 10 µg/mL came out at 10%.

With `CN1CCC(N(C)c2ccc(NC(=S)Nc3ccc(NC(=O)c4csnn4)cc3)cc2Cl)CC1` [Example 904, [1,2,3]Thiadiazole-4-carboxylic acid [4-(3-{3-chloro-4-[methyl-(1-methyl-piperidin-4-yl)-amino]-phenyl}-thioureido)-phenyl]-amide], the IC50 was 0.4 µg/mL (≈ 0.775 µM) in assay [1], greater than 10 µg/mL with VZV strain Ellen and 12 µg/mL (≈ 23.3 µM) in the assay on HSV-1. Moreover, the inhibition at 10 µg/mL in the assay with VZV strain Ellen was determined as 58%.

For `CN(c1ccc(NC(=S)Nc2ccc(NC(=O)c3csnn3)cc2)cc1Cl)C1CCN(Cc2ccccc2)C1` (stereo not drawn) [Example 905, [1,2,3]Thiadiazole-4-carboxylic acid [4-(3-{4-[(1-benzyl-pyrrolidin-3-yl)-methyl-amino]-3-chloro-phenyl}-thioureido)-phenyl]-amide], the IC50 was found to be 0.3 µg/mL (≈ 0.519 µM) in assay [1], 2 µg/mL (≈ 3.46 µM) in the assay with VZV strain Ellen and 4 µg/mL (≈ 6.92 µM) with HSV-1. The inhibition at 10 µg/mL with VZV strain Ellen came to 82%.

Take `COc1cc(C)c(Cl)cc1NC(=S)Nc1ccc(NC(=O)c2csnn2)cc1` [Example 907, [1,2,3]Thiadiazole-4-carboxylic acid {4-[3-(5-chloro-2-methoxy-4-methyl-phenyl)-thioureido]-phenyl}-amide]: the IC50 in assay [1] is 0.009 µg/mL (≈ 0.0207 µM); with VZV strain Ellen, greater than 10 µg/mL; in the assay on HSV-1 it was greater than 10 µg/mL. The inhibition at 10 µg/mL with VZV strain Ellen amounted to 36%.

Consider `O=C(Nc1ccc(NC(=S)Nc2ccccc2)cc1)c1ccco1` [Example 911, Furan-2-carboxylic acid [4-(3-phenyl-thioureido)-phenyl]-amide], for which the IC50 in assay [1] is 0.3 µg/mL (≈ 0.889 µM); in the assay on VZV strain Ellen it was greater than 10 µg/mL; in the assay on HSV-1, greater than 10 µg/mL. Moreover, the inhibition at 10 µg/mL in the assay with VZV strain Ellen came out at 25%.

As to `O=C(Nc1ccc(NC(=S)Nc2ccccc2)cc1)c1csnn1` [Example 912, [1,2,3]Thiadiazole-4-carboxylic acid [4-(3-phenyl-thioureido)-phenyl]-amide], the results for the IC50 (in assay [1]; in the assay with VZV strain Ellen; in the assay with HSV-1) were 0.16 µg/mL (≈ 0.45 µM), greater than 10 µg/mL and greater than 10 µg/mL, respectively. For the same molecule, the inhibition at 10 µg/mL in the assay on VZV strain Ellen came to 0%.

As for `CC(O)c1ccc(NC(=S)Nc2ccc(NC(=O)c3ccco3)cc2)cc1Cl` (stereo not drawn) [Example 917, Furan-2-carboxylic acid (4-{3-[3-chloro-4-(1-hydroxy-ethyl)-phenyl]-thioureido}-phenyl)-amide], the IC50 in assay [1] was 0.2 µg/mL (≈ 0.481 µM); with VZV strain Ellen it was greater than 10 µg/mL; in the assay on HSV-1, 10 µg/mL (≈ 24 µM).

`Nc1cccc(NC(=S)Nc2ccc(NC(=O)c3csnn3)cc2)c1` [Example 918, [1,2,3]Thiadiazole-4-carboxylic acid {4-[3-(3-amino-phenyl)-thioureido]-phenyl}-amide]: the values for the IC50 (in assay [1]; with VZV strain Ellen; with HSV-1) were 0.03 µg/mL (≈ 0.081 µM), greater than 10 µg/mL and greater than 10 µg/mL, respectively.

`O=C(Nc1ccc(NC(=S)Nc2ccc(OC(F)(F)F)c(Br)c2)cc1)c1ccco1` [Example 919, Furan-2-carboxylic acid {4-[3-(3-bromo-4-trifluoromethoxy-phenyl)-thioureido]-phenyl}-amide]: the IC50 is 0.05 µg/mL (≈ 0.0999 µM) in assay [1], greater than 10 µg/mL in the assay with VZV strain Ellen and greater than 10 µg/mL in the assay on HSV-1.

Regarding `O=C(Nc1ccc(NC(=S)Nc2cc(Cl)cc(Cl)c2)cc1)c1csnn1` [Example 921, [1,2,3]Thiadiazole-4carboxylic acid {4-[3-(3,5-dichloro-phenyl)-thioureido]-phenyl}-amide], the IC50 in assay [1] stood at 0.05 µg/mL (≈ 0.118 µM); with VZV strain Ellen, 7 µg/mL (≈ 16.5 µM); with HSV-1, 8 µg/mL (≈ 18.9 µM). In addition, the inhibition at 10 µg/mL in the assay on VZV strain Ellen worked out at 85%.

`COc1c(Cl)cc(NC(=S)Nc2ccc(NC(=O)c3cccc(F)c3)cc2)cc1Cl` [Example 922, N-{4-[3-(3,5-Dichloro-4-methoxy-phenyl)-thioureido]-phenyl}-3-fluoro-benzamide]: the figures for the IC50 (in assay [1]; in the assay on VZV strain Ellen; in the assay with HSV-1) were 0.01 µg/mL (≈ 0.0215 µM), 7 µg/mL (≈ 15.1 µM) and greater than 10 µg/mL, respectively. In addition, the inhibition at 10 µg/mL in the assay on VZV strain Ellen is 84%.

As for `CC(=O)Nc1ccc(NC(=S)Nc2ccc(C)c(Cl)c2)cc1` [Example 939, N-{4-[3-(3-Chloro-4-methyl-phenyl)-thioureido]-phenyl} -acetamide], the values for the IC50 (in assay [1]; in the assay with VZV strain Ellen; in the assay with HSV-1) were 0.018 µg/mL (≈ 0.0539 µM), 15 µg/mL (≈ 44.9 µM) and greater than 10 µg/mL, respectively. Further, the inhibition at 10 µg/mL with VZV strain Ellen worked out at 53%.

Consider `O=C(Nc1ccc(NC(=S)Nc2ccc(C(F)(F)F)c(Cl)c2)cc1)c1csnn1` [Example 960, [1,2,3]Thiadiazole-4-carboxylic acid {4-[3-(3-chloro-4-trifluoromethyl-phenyl)-thioureido]-phenyl}-amide], for which the IC50 is 0.03 µg/mL (≈ 0.0655 µM) in assay [1], greater than 10 µg/mL with VZV strain Ellen and greater than 10 µg/mL with HSV-1. The inhibition at 10 µg/mL in the assay with VZV strain Ellen amounted to 58%.

With `O=C(Nc1ccc(NC(=S)Nc2ccc(C(F)(F)F)c(Cl)c2)cc1)c1ccccc1F` [Example 961, N-{4-[3-(3-Chloro-4-trifluoromethyl-phenyl)-thioureido]-phenyl} -2-fluoro-benzamide], the IC50 was 0.006 µg/mL (≈ 0.0128 µM) in assay [1] and greater than 10 µg/mL with HSV-1. The inhibition at 10 µg/mL in the assay with VZV strain Ellen came to 20%.

For `O=C(Nc1ccc(NC(=S)Nc2ccc(Cl)c(Cl)c2)cc1)c1csnn1` [Example 964, [1,2,3]Thiadiazole-4-carboxylic acid {4-[3-(3,4-dichloro-phenyl)-thioureido]-phenyl}-amide], the IC50 in assay [1] was 0.03 µg/mL (≈ 0.0707 µM); in the assay with VZV strain Ellen, greater than 10 µg/mL; in the assay with HSV-1, greater than 10 µg/mL. Besides, in the assay on VZV strain Ellen, the inhibition at 10 µg/mL was 9%.

As to `O=C(Nc1ccc(NC(=S)Nc2ccc(Br)c(Cl)c2)cc1)c1ccccc1F` [Example 965, N-{4-[3-(4-Bromo-3-chloro-phenyl)-thioureido]-phenyl} -2-fluoro-benzamide], the figures for the IC50 (in assay [1]; with HSV-1) were 0.008 µg/mL (≈ 0.0167 µM) and greater than 10 µg/mL, respectively. For the same molecule, in the assay with VZV strain Ellen, the inhibition at 10 µg/mL amounted to 36%.

Turning to `O=C(Nc1ccc(NC(=S)Nc2ccc(I)c(Cl)c2)cc1)c1ccccc1F` [Example 966, N-{4-[3-(3-Chloro-4-iodo-phenyl)-thioureido]-phenyl} -2-fluoro-benzamide], the figures for the IC50 (in assay [1]; with HSV-1) were 0.02 µg/mL (≈ 0.038 µM) and greater than 10 µg/mL, respectively. In addition, the inhibition at 10 µg/mL with VZV strain Ellen is 42%.

For the molecule `O=C(Nc1ccc(NC(=S)Nc2ccc(F)c(Cl)c2)cc1)c1ccco1` [Example 969, Furan-2-carboxylic acid {4-[3-(3-chloro-4-fluoro-phenyl)-thioureido]-phenyl}-amide], the IC50 in assay [1] was 0.03 µg/mL (≈ 0.077 µM); with VZV strain Ellen it was greater than 10 µg/mL; with HSV-1, greater than 10 µg/mL. Moreover, the inhibition at 10 µg/mL with VZV strain Ellen was 40%.

As to `O=C(Nc1ccc(NC(=S)Nc2ccc(Br)c(Cl)c2)cc1)c1csnn1` [Example 970, [1,2,3]Thiadiazole-4-carboxylic acid {4-[3-(4-bromo-3-chloro-phenyl)-thioureido]-phenyl}-amide], the IC50 in assay [1] was 0.06 µg/mL (≈ 0.128 µM); in the assay on VZV strain Ellen, greater than 10 µg/mL; in the assay with HSV-1, greater than 10 µg/mL. In addition, in the assay with VZV strain Ellen, the inhibition at 10 µg/mL was 16%.
